Assay results published in patent US20230303581A1, “ORALLY BIOAVAILABLE, BRAIN-PENETRANT COMPOUND WITH SELECTIVITY FOR THE CANNABINOID TYPE 2 RECEPTOR WITH POTENTIAL USE TOWARDS VISCERAL PAIN MANAGEMENT AND NEURODEGENERATIVE DISORDERS” (University of Mississippi, priority 2022, published 2023).
Values joined by “and” are separate entries in the source; they are usually repeats but may differ in a detail not shown here. Identical values can stand only once. “Also recorded” adds a separate entry of the source. Like-named read-outs stand apart in the source and are kept apart here. One block for each compound: values may come before it.

Legend:
human CB1 receptors = human CB1 receptors (Homo sapiens (Human), UniProt P21554); assay: Cannabinoid receptor binding (displacement) assay, CB1; conditions: 10 μM compound
Chain of human CB1 receptors (P21554 whole entry): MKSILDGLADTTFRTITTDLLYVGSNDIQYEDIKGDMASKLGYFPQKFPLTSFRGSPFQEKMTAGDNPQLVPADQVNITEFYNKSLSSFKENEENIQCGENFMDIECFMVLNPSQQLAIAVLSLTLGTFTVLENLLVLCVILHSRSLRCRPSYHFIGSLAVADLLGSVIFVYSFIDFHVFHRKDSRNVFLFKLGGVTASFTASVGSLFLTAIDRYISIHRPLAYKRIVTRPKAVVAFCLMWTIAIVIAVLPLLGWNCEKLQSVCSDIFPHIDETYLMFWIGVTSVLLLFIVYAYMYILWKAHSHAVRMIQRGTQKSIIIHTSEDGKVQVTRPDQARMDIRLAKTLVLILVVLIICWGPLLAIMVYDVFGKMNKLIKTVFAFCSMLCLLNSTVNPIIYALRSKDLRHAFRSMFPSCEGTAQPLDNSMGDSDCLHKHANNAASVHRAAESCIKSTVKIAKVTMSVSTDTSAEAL
Experimental: (§1) The affinities of the compounds for CB1 and CB2 receptors were examined using displacement assays, as previously described. Briefly, cell membranes from CHO cells expressing human CB1 or human CB2 receptors were isolated using differential centrifugation. Test compounds reconstituted in DMSO and were incubated with the isolated membrane in binding buffer (50 mM Tris-HCl, 1 mM EDTA, 3 mM MgCl2, 5 mg/mL BSA, pH 7.4) along with 2.5 nM [^3H]CP-55,940. Total binding was assessed in the presence of equal concentration of DMSO, while non-specific binding was determined in the presence of 10 μM CP-55,940, and background binding was determined in wells lacking membrane. Following incubation at 30° C. for 60 min, the binding reactions were terminated by vacuum filtration through Whatman GF/C filters. The filters were then washed twice with ice-cold buffer (50 mM Tris-HCl, 1 mg/mL BSA). Liquid scintillation cocktail was added to each well and the total tritiated counts per minute were analyzed using a TopCount scintillation counter. Background counts were subtracted from all wells and the percent displacement from total binding was calculated.
(§2) The compounds were initially screened at 10 μM concentrations. If they produced at least ±30% displacement of the radioligand, then full competition curves were constructed. Ki values were calculated using GraphPad Prism (San Diego, CA, USA) and Kd values determined using a 1 site fit. All assays were run in technical and biological replicates so that the n=5-6. PK Evaluation in CD-1 Mice
(§3) The CB1/CB2 receptor binding activities of analogs 4a-4q were assessed via radioactivity-based competitive binding assays using [^3H]CP55,940, an extensively studied radioligand that is frequently used for cannabinoid assays. […] In preliminary screening, all 17 synthetic PBD compounds (4a-4q) were subjected to in vitro CB1 and CB2 binding assays at a single concentration of 10 μM. […] Therefore, the most promising ligands (4k and 4q) were selected for assessment in full competition curves against CB1 and CB2.

human CB2 receptors = human CB2 receptors (Homo sapiens (Human), UniProt P34972); assay: Cannabinoid receptor binding (displacement) assay, CB2; conditions: for Displacement of [3H]CP-55,940 from CB2: 10 μM compound; for Ki: CB2, full competition curves
Chain of human CB2 receptors (P34972 whole entry): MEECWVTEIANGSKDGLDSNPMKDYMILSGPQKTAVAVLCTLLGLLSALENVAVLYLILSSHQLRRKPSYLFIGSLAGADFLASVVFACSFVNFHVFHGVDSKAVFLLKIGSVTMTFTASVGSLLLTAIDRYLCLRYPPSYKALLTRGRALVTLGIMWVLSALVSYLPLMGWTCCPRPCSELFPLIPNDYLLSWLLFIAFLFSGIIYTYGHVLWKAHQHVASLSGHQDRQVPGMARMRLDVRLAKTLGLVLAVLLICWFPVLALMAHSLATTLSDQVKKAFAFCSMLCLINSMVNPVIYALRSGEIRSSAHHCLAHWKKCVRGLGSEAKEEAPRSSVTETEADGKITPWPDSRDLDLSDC
Experimental: as §1, §2, §3

[1] = Stability studies under physiological pH; type: physicochemical; conditions: 4k compared to 4q; data not reported
mice [2] = assay: Conditioned place preference test; type: in vivo; conditions: FIG. 4
Description: Conditioned place preference testing is used to assess a compound's rewarding effects in order to gauge potential abuse liability. Mice are “conditioned” to associate distinctly lighted/colored/textured chambers with a rewarding drug (e.g., opioid) or no drug. If the mice sense a rewarding effect of the drug, they will prefer to occupy the chamber associated with that drug. FIG. 4 presents the results of a conditioned place preference test for 3 groups of mice (i.e., vehicle, oxycodone treated, and compound 4k treated).

mice [3] = assay: Acetic acid-induced writhing test; type: in vivo
Description: Acetic acid-induced writhing is widely used for assessing analgesic effects against inflammatory pain of peripheral origin.

[4] = PK evaluation in CD-1 mice (plasma and tissue concentrations); type: in vivo
Experimental: The primary stock solutions of 4k and phenacetin (internal standard, IS) were prepared in methanol at a concentration of 1.0 mg/mL. Working solutions of calibration standards and quality control (QC) samples were prepared by dilution with methanol and stored at −20° C. A working stock of the IS solution (20 ng/mL) was prepared in methanol and stored at −20° C.
Chromatography was performed on an Acquity™ UPLC system (Waters Corp, Milford, MA, USA) with an autosampler temperature at 10° C. Waters Acquity UPLC® HSS C18 column (3.0×50 mm, 1.8 μm particle size) was used for chromatographic separation with linear gradient elution consisting of (A) 90% acetonitrile and (B) 10% 0.2% formic acid in Milli-Q water as mobile phases. The flow rate was set at 0.30 mL/min, and the injection volume was 2 μL.
An Acquity Tandem Quadrupole Mass Detector (Xevo TQ-S; Waters Corp, Milford, MA, USA) in positive electrospray ionization mode was used for mass spectrometric detection. For collision-induced dissociation, argon was used as collision gas. The cone voltage and collision energy were set at 60 V and 34 V for 4k and 46 V and 26 V for the IS, respectively. Quantification was performed using the monitoring of multiple reaction monitoring (MRM) of following transitions: m/z 409.0/220.9 for 4k and m/z 180.0/92.7 for IS. Retention times of 4k and IS were 2.85 and 1.81 min, respectively.
A simple protein precipitation method was followed for extraction of 4k from mice plasma. To an aliquot of 50 μL of plasma or tissue (brain, liver, or kidney) samples, IS solution (5 μL of 20 ng/mL) was added and mixed for 15 s on a cyclomixer (Thermo Scientific, Indianapolis, IN, USA). After precipitation with 200 μL of acetonitrile, the mixture was vortexed for 2 min, followed by centrifugation for 10 min at 14,000 rpm on an accuSpin Micro 17R (Fisher Scientific, Suwanee, GA, USA) at 5° C. An aliquot of ˜150 μL of clear supernatant was transferred into vials and 2 μL was injected onto LC-MS/MS system for analysis.
Male CD-1 mice (N=48) were obtained from Envigo (St. Louis, MO, USA) and maintained on a 12:12 h reversed dark/light cycle (lights off at 07:00 h) with ad libitum access to food and water. Following a ˜4 h fast, animals were randomly assigned to one of two groups. Group I and II animals (n=24/group, weight range 25-30 g) received compound 4k (5 mg/kg) orally (in the form of a solution, prepared using 10% absolute alcohol, 10% cremophor, and 80% Milli-Q water) or intravenously (i.v., using solution formulation comprising 10% absolute alcohol, 10% cremophor, and 80% normal saline), respectively. At 0.5, 1, 2, 4, 8, and 24 h post administration, animals were euthanized, blood was collected in K2. EDTA-containing polypropylene tubes and, tissues were collected (brain, liver, and kidney). Plasma was harvested by centrifuging the blood using Eppendorf 5430R Centrifuge (Germany) at 5000 rpm for 5 min and stored frozen at −80° C. until analysis.
Brain, liver, and kidney tissues were homogenized in separate 15 mL round-bottom screw-capped vials in phosphate buffered saline (5 volumes of each tissue mass) with a homogenizer (Polytron®) and stored at −80° C. until analysis. Plasma or tissue homogenates (50 μL) were spiked with IS and processed as mentioned in sample preparation section.
Plasma and tissue concentration and time data of compound 4k were analyzed by a non-compartmental method using WinNonlin Version 5.3 (Pharsight Corporation, Mountain View, CA, USA).

[5] = male, CD-1, mouse, intravenous 5 mg/kg, brain
[6] = male, CD-1, mouse, intravenous 5 mg/kg, kidney
[7] = male, CD-1, mouse, intravenous 5 mg/kg, liver
[8] = male, CD-1, mouse, intravenous 5 mg/kg, plasma
[9] = male, CD-1, mouse, oral 5 mg/kg, brain
[10] = male, CD-1, mouse, oral 5 mg/kg, kidney
[11] = male, CD-1, mouse, oral 5 mg/kg, liver
[12] = male, CD-1, mouse, oral 5 mg/kg, plasma

Compound: (S,E)-11-[2-(Benzo[b]thiophenylmethylene)hydrazono]-pyrrolo[2,1-c][1,4]Benzodiazepine [Compound 4h]
Displacement of [3H]CP-55,940 from CB1 (human CB1 receptors): 36.88%
Displacement of [3H]CP-55,940 from CB2 (human CB2 receptors): 61.05%

Compound: Cc1ncsc1/C=N/N=C1/Nc2ccccc2C(=O)N2CCC[C@@H]12 [Compound 4e]
Displacement of [3H]CP-55,940 from CB1 (human CB1 receptors): 21.88%
Displacement of [3H]CP-55,940 from CB2 (human CB2 receptors): 19.86%

Compound: O=C1c2ccccc2N/C(=N/N=C/c2ccc[nH]2)[C@@H]2CCCN12 [Compound 4a]
Displacement of [3H]CP-55,940 from CB1 (human CB1 receptors): −3.09%
Displacement of [3H]CP-55,940 from CB2 (human CB2 receptors): −12.50%

Ki (human CB2 receptors): 137 nM
Compound: O=C1c2ccccc2N/C(=N/N=C/C23CC4CC(CC(C4)C2)C3)[C@@H]2CCCN12 [Compound 4q]

Compound: (S,E)-11-[(Benzo[b]thiophen-2-ylmethylene)hydrazono]-7-bromo-pyrrolo[2,1-c][1,4]Benzodiazepine [Compound 4i]
Displacement of [3H]CP-55,940 from CB1 (human CB1 receptors): 49.82%
Displacement of [3H]CP-55,940 from CB2 (human CB2 receptors): 36.39%

Compound: Cn1cc(/C=N/N=C2/Nc3ccccc3C(=O)N3CCC[C@@H]23)c2ccccc21 [Compound 4o]
Displacement of [3H]CP-55,940 from CB1 (human CB1 receptors): 5.09%
Displacement of [3H]CP-55,940 from CB2 (human CB2 receptors): 1.01%

Compound: Nc1ncc(/C=N/N=C2/Nc3ccccc3C(=O)N3CCC[C@@H]23)s1 [Compound 4f]
Displacement of [3H]CP-55,940 from CB1 (human CB1 receptors): 1.75%
Displacement of [3H]CP-55,940 from CB2 (human CB2 receptors): 3.72%

Ki (human CB2 receptors): 146 nM
AUC0-∞ ([4]; intravenous 5 mg/kg, brain): 5685 ng·h/g
AUC0-∞ ([4]; intravenous 5 mg/kg, kidney): 13272 ng·h/g
AUC0-∞ ([4]; intravenous 5 mg/kg, liver): 19991 ng·h/g
clearance as share of hepatic blood flow in mice ([4]; intravenous 5 mg/kg, plasma): 26%
clearance [4, 5]: 15.7 ± 2.31 mL/min/kg
half-life [4, 5]: 6.54 ± 1.38 h
clearance [4, 6]: 6.38 ± 0.49 mL/min/kg
half-life [4, 6]: 10.2 ± 0.49 h
clearance [4, 7]: 4.28 ± 0.38 mL/min/kg
half-life [4, 7]: 9.26 ± 0.67 h
Vd [4, 8]: 14.3 ± 3.11 L/kg
clearance [4, 8]: 23.5 ± 5.35 mL/min/kg
half-life [4, 8]: 6.91 ± 0.15 h
Cmax ([4]; male, CD-1, mouse, intravenous 5 mg/kg, plasma, read-out: Cmax Or C0): 4340 ng/mL
Tmax [4, 9]: 1.25 ± 0.44 h
half-life [4, 9]: 22.9 ± 3.73 h
Cmax ([4]; male, CD-1, mouse, oral 5 mg/kg, brain, read-out: Cmax): 602 ± 44.8 ng/g
bioavailability ([4]; male, CD-1, mouse, oral 5 mg/kg, brain, read-out: F (apparent oral bioavailability)): 43%
Tmax [4, 10]: 0.75 ± 0.15 h
half-life [4, 10]: 16.7 ± 1.61 h
Cmax ([4]; male, CD-1, mouse, oral 5 mg/kg, kidney, read-out: Cmax): 795 ± 22.6 ng/g
bioavailability ([4]; male, CD-1, mouse, oral 5 mg/kg, kidney, read-out: F (apparent oral bioavailability)): 37 ± 3.78%
Tmax [4, 11]: 0.75 ± 0.15 h
half-life [4, 11]: 13 ± 0.97 h
Cmax ([4]; male, CD-1, mouse, oral 5 mg/kg, liver, read-out: Cmax): 1890 ± 282 ng/g
bioavailability ([4]; male, CD-1, mouse, oral 5 mg/kg, liver, read-out: F (apparent oral bioavailability)): 32 ± 2.86%
AUC(0-inf) [4, 12]: 739 ± 6.75 ng·h/mL
Tmax [4, 12]: 0.88 ± 0.13 h
half-life [4, 12]: 16.4 ± 1.66 h
Cmax ([4]; male, CD-1, mouse, oral 5 mg/kg, plasma, read-out: Cmax): 198 ± 11.5 ng/mL
bioavailability ([4]; male, CD-1, mouse, oral 5 mg/kg, plasma, read-out: F (bioavailability)): 18 ± 2.43%
AUC0-∞ ([4]; oral 5 mg/kg, kidney): 5223 ± 44.75 ng·h/g and 5223 ng·h/g
AUC0-∞ ([4]; oral 5 mg/kg, liver): 6423 ± 571 ng·h/g and 6423 ng·h/g
Compound: O=C1c2ccc(Cl)cc2N/C(=N/N=C/c2cc3ccccc3s2)[C@@H]2CCCN12 [Compound 4k]
tolerance under physiological pH [1]: better tolerance
place preference (rewarding effect, abuse liability) (mice [2]): no significant rewarding effects; also recorded: no such preference
number writhes per 5 min (mice [3]; FIG. 3A, 4k 5 mg/kg versus vehicle): lower
total frequency of writhes over the entire experiment (mice [3]; FIG. 3B, 30 min): lowest
writhing over 30 minutes (mice [3]; oxycodone 3 mg/kg, compound 4k 5 mg/kg, versus vehicle): attenuate writhing; also recorded: significantly less writhing

Compound: (S,E)-11-[(5-Methoxy-1H-indol-3-yl)methylene)hydrazono]-pyrrolo[2,1-c][1,4]Benzodiazepine [Compound 4p]
Displacement of [3H]CP-55,940 from CB1 (human CB1 receptors): −27.20%
Displacement of [3H]CP-55,940 from CB2 (human CB2 receptors): −29.47%
